For the experiment, the target named is T1, huPPARγ (Homo sapiens, UniProt P37231).
T1 sequence (P37231 1-505): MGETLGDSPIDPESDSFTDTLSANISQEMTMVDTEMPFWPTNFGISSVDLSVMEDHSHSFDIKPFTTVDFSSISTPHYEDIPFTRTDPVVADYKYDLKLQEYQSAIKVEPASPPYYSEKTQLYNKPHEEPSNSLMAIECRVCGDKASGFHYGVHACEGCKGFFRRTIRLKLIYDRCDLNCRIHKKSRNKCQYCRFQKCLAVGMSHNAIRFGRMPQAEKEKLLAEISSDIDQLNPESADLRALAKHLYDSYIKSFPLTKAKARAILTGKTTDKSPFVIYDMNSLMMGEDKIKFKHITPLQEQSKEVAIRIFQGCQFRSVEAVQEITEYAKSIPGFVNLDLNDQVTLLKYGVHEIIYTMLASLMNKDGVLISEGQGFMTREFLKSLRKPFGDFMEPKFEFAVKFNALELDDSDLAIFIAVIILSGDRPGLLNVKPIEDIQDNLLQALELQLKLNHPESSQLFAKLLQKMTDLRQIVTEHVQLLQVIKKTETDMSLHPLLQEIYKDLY
T1 sequence (P19793 1-462 partner): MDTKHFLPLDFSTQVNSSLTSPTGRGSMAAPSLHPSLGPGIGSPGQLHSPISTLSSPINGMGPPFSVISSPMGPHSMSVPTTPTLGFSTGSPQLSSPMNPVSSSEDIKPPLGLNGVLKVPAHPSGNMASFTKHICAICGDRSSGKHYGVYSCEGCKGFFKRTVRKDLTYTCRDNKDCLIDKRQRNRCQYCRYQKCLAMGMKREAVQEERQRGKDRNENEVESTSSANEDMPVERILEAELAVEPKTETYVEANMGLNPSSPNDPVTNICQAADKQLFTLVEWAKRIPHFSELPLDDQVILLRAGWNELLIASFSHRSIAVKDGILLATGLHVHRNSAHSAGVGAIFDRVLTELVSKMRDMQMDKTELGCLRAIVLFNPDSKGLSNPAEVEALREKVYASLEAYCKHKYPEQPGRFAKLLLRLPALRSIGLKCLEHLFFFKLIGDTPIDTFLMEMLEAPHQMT
Put plainly: DNA-dependent binding (ABCD binding), SPA, huPPARγ. As to conditions: displacement of tritium-labeled PPARγ agonist radioligand. The method, then: DNA-dependent binding (ABCD binding) was carried out using SPA technology with PPAR receptors. Tritium-labeled PPARγ and PPARα agonists were used as radioligands for generating displacement curves and IC50 values with compounds of the invention. Cotransfection assays were carried out in CV-1 cells. The reporter plasmid contained an acylCoA oxidase (AOX) PPRE and TK promoter upstream of the luciferase reporter cDNA. Appropriate PPARs and RXRα were constitutively expressed using plasmids containing the CMV promoter. […] In order to eliminate such interference, a GAL4 chimeric system was used in which the DNA binding domain of the transfected PPAR was replaced by that of GAL4, and the GAL4 response element was utilized in place of the AOX PPRE. Cotransfection efficacy was determined relative to PPARα agonist and […] reference molecules. Efficacies were determined by computer fit to a concentration-response curve, or in some cases at a single high concentration of agonist (10 μM). For binding or cotransfection studies with receptors other than PPARs, similar assays were carried out using appropriate ligands, receptors, reporter constructs, etc., for that particular receptor.
These studies were carried out to evaluate the ability of compounds of the invention to bind to and/or activate various nuclear transcription factors, particularly huPPARα (“hu” indicates “human”) and huPPARγ. These studies provide in vitro data concerning efficacy and selectivity of compounds of the invention. Furthermore, binding and cotransfection data for compounds of the invention were compared with corresponding data for marketed compounds that act on either huPPARα or huPPARγ.
Molecule `Cc1sc(-c2cccc(-c3ccccc3)c2)nc1CCOc1ccc(OC(C)(C)C(=O)O)cc1` [Example 46, 2-{4-[2-(2-Biphenyl-3-yl-5-methyl-thiazol-4-yl)-ethoxy]-phenoxy}-2-methyl-propionic acid] displayed an IC50 of 268 nM.
`Cc1oc(-c2ccc(-c3c(F)cccc3F)cc2)nc1CCOc1ccc(OC(C)(C)C(=O)O)cc1` [Example 14, 2-(4-{2-[2-(2′,6′-Difluorobiphenyl-4-yl)-5-methyloxazol-4-yl]-ethoxy}-phenoxy)-2-methylpropionic acid] showed an IC50 of 457 nM.
As for `Cc1oc(-c2ccc(-c3ccccc3)cc2)nc1CCOc1cccc(OC(C)(C)C(=O)O)c1` [Example 21, 2-{3-[2-(2-Biphenyl-4-yl-5-methyloxazol-4-yl)ethoxy]phenoxy}-2-methylpropionic acid], the 50% inhibitory concentration (IC50) came out at 532 nM.

Usually IC50 stands for the concentration needed to halve the response being measured. A high value points to a need for much substance.

For the origin of these results see patent US6417212B1, “Modulators of peroxisome proliferator activated receptors” (Eli Lilly & Company, priority 1999, dated 2002).
